Molecules are shown by their SMILES.

This passage reports IC50 results from US8071768B2, “Alkylquinoline and alkylquinazoline kinase modulators” (Janssen Pharmaceutica, N.V., priority 2005, dated 2011).

T1 sequence (Q16620 32-822): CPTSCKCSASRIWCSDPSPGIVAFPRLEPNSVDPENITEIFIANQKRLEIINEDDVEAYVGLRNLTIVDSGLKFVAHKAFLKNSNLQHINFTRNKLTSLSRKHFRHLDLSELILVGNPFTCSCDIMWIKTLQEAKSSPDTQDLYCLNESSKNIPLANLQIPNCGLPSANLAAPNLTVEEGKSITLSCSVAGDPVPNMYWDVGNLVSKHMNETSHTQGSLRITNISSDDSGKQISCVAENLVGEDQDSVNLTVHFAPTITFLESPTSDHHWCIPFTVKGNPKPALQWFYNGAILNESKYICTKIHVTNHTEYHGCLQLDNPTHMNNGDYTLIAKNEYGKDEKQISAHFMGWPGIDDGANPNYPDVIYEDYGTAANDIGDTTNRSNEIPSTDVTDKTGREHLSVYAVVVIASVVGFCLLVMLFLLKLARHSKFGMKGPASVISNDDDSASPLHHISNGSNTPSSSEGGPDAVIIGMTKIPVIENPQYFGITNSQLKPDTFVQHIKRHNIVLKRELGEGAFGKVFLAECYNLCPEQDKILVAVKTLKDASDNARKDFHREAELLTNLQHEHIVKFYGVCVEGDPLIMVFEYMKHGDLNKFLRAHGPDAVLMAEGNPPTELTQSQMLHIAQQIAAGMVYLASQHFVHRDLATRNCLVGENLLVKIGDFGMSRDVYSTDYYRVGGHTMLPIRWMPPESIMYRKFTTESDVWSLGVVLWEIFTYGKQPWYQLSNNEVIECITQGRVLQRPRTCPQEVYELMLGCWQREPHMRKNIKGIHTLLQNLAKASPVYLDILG

The test addresses T1, TrkB (Homo sapiens, UniProt Q16620).
T1 construct: purchased Upstate 14-507M
Nature of the test: Trk B Fluorescence Polarization Kinase Assay. The class given is biochemical. The note with it: uncertainty ±10%. In short, it runs like this: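 The TrkB kinase reaction (50 nM enzyme, 20 ug/mL poly Glu4Tyr, 150 uM ATP, 5 mM MgCl2, 1% DMSO) ran 30 minutes at room temperature and was stopped with EDTA. Phosphorylation was detected by fluorescence-polarization displacement of a fluorescein phosphopeptide from an anti-phosphotyrosine antibody. IC50 came from a variable-slope sigmoidal fit of triplicates.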
`O=C(Nc1ccc(N2CCCC2)nc1)N1CCC(c2ncnc3cc(OCCN4CCOCC4)ccc23)CC1` [Compound 95, 4-[7-(2-Morpholin-4-yl-ethoxy)-quinazolin-4-yl]-piperidine-1-carboxylic acid (6-pyrrolidin-1-yl-pyridin-3-yl)-amide] displayed an IC50 of 3.4 µM.

Turning to `O=C(Nc1ccc(N2CCOCC2)cc1)N1CCC(c2ncnc3cc(OCCN4CCOCC4)ccc23)CC1` [Compound 96, 4-[7-(2-Morpholin-4-yl-ethoxy)-quinazolin-4-yl]-piperidine-1-carboxylic acid (4-morpholin-4-yl-phenyl)-amide], the midpoint of inhibition, the IC50, lay at 27.9 µM.

As for `CC(=O)N1CCN(CCOc2ccc3c(C4CCN(C(=O)Nc5ccc(N6CCOCC6)cc5)CC4)ncnc3c2)CC1` [Compound 97, 4-{7-[2-(4-Acetyl-piperazin-1-yl)-ethoxy]-quinazolin-4-yl}-piperidine-1-carboxylic acid (4-morpholin-4-yl-phenyl)-amide], the IC50 was over 20 µM.

For the compound `O=C(Nc1ccc(N2CCOCC2)cc1)N1CCC(c2ncnc3cc(OCCC4CCCCN4)ccc23)CC1` (stereo not drawn) [Compound 98, 4-[7-(2-Piperidin-2-yl-ethoxy)-quinazolin-4-yl]-piperidine-1-carboxylic acid (4-morpholin-4-yl-phenyl)-amide], the half-inhibitory concentration (IC50) is over 20 µM.

`CN1CCC(COc2ccc3c(C4CCN(C(=O)Nc5ccc(N6CCCC6)nc5)CC4)ncnc3c2)CC1` [Compound 99, 4-[7-(1-Methyl-piperidin-4-ylmethoxy)-quinazolin-4-yl]-piperidine-1-carboxylic acid (6-pyrrolidin-1-yl-pyridin-3-yl)-amide] yielded an IC50 of 6.41 µM.

`CC(C)Oc1ccc(NC(=O)N2CCC(c3ncnc4cc(N(C)C)ccc34)CC2)cc1` [Compound 100, 4-(7-Dimethylamino-quinazolin-4-yl)-piperidine-1-carboxylic acid (4-isopropoxy-phenyl)-amide] gave a half-maximal inhibitory concentration (IC50) of 0.1 µM. This IC50 is about 64-fold lower than that of the compound before.

Turning to `CC(C)Oc1ccc(NC(=O)N2CCC(c3ncnc4ccc(OCCCN5CCCC5=O)cc34)CC2)cc1` [Compound 101, 4-{6-[3-(2-Oxo-pyrrolidin-1-yl)-propoxy]-quinazolin-4-yl}-piperidine-1-carboxylic acid (4-isopropoxy-phenyl)-amide], the IC50 is 0.3 µM.

`CC(C)Oc1ccc(NC(=O)N2CCC(c3ncnc4cc(NCCCN5CCN(C)CC5)ccc34)CC2)cc1` [Compound 102, 4-{7-[3-(4-Methyl-piperazin-1-yl)-propylamino]-quinazolin-4-yl}-piperidine-1-carboxylic acid (4-isopropoxy-phenyl)-amide] showed an IC50 of 0.2 µM. This IC50 and that of the compound before are within 1.5-fold of each other.

With `CC(C)Oc1ccc(NC(=O)N2CCC(c3ncnc4cc(N5CCN(C)CC5)ccc34)CC2)cc1` [Compound 103, 4-[7-(4-Methyl-piperazin-1-yl)-quinazolin-4-yl]-piperidine-1-carboxylic acid (4-isopropoxy-phenyl)-amide], it took 0.2 µM to reach half-maximal inhibition (IC50).

As for `CN1CCN(CCCOc2ccc3c(C4CCN(C(=O)Nc5ccc(N6CCCC6)nc5)CC4)ncnc3c2)CC1` [Compound 104, 4-{7-[3-(4-Methyl-piperazin-1-yl)-propoxy]-quinazolin-4-yl}-piperidine-1-carboxylic acid (6-pyrrolidin-1-yl-pyridin-3-yl)-amide], the IC50 was 0.8 µM.

The compound `CN1CCN(CCCOc2ccc3c(C4CCN(C(=O)Nc5cnc(N6CCCC6)nc5)CC4)ncnc3c2)CC1` [Compound 105, 4-{7-[3-(4-Methyl-piperazin-1-yl)-propoxy]-quinazolin-4-yl}-piperidine-1-carboxylic acid (2-pyrrolidin-1-yl-pyrimidin-5-yl)-amide] displayed an IC50 of 0.2 µM. Against the preceding compound, the IC50 is about 4-fold lower.

`CN1CCN(CCCOc2ccc3c(C4CCN(C(=S)Nc5ccc(N6CCOCC6)nc5)CC4)ncnc3c2)CC1` [Compound 106, 4-{7-[3-(4-Methyl-piperazin-1-yl)-propoxy]-quinazolin-4-yl}-piperidine-1-carbothioic acid (6-morpholin-4-yl-pyridin-3-yl)-amide]: the 50% inhibitory concentration (IC50) was found to be 16.3 µM.

In turn, `CN1CCC(COc2ccc3c(C4CCN(C(=O)Nc5ccc(OC6CCC6)nc5)CC4)ncnc3c2)CC1` [Compound 107, 4-[7-(1-Methyl-piperidin-4-ylmethoxy)-quinazolin-4-yl]-piperidine-1-carboxylic acid (6-cyclobutoxy-pyridin-3-yl)-amide] showed a half-maximal inhibitory concentration (IC50) of 0.2 µM.

As to `CN1CCC(COc2ccc3c(C4CCN(C(=O)Nc5ccc(N6CCOCC6)nc5)CC4)ncnc3c2)CC1` [Compound 108, 4-[7-(1-Methyl-piperidin-4-ylmethoxy)-quinazolin-4-yl]-piperidine-1-carboxylic acid (6-morpholin-4-yl-pyridin-3-yl)-amide], the midpoint of inhibition, the IC50, lay at 5.4 µM.

`CN1CCC(COc2ccc3c(C4CCN(C(=O)Nc5ccc(N6CCCC6)cc5)CC4)ncnc3c2)CC1` [Compound 109, 4-[7-(1-Methyl-piperidin-4-ylmethoxy)-quinazolin-4-yl]-piperidine-1-carboxylic acid (4-pyrrolidin-1-yl-phenyl)-amide] yielded an IC50 of 8.9 µM.

Turning to `O=C(Nc1ccc(N2CCOCC2)nc1)N1CCC(c2ncnc3cc(OCCCn4cnnc4)ccc23)CC1` [Compound 110, 4-[7-(3-[1,2,4]Triazol-4-yl-propoxy)-quinazolin-4-yl]-piperidine-1-carboxylic acid (6-morpholin-4-yl-pyridin-3-yl)-amide], the 50% inhibitory concentration (IC50) was 15 µM.

In turn, `CN(C)c1c(NCCCOc2ccc3c(C4CCN(C(=O)Nc5ccc(N6CCCC6)nc5)CC4)ncnc3c2)c(=O)c1=O` [Compound 111, 4-{7-[3-(2-Dimethylamino-3,4-dioxo-cyclobut-1-enylamino)-propoxy]-quinazolin-4-yl}-piperidine-1-carboxylic acid (6-pyrrolidin-1-yl-pyridin-3-yl)-amide] had a half-inhibitory concentration (IC50) of over 20 µM.

For `O=C(NCCCOc1ccc2c(C3CCN(C(=O)Nc4ccc(N5CCOCC5)nc4)CC3)ncnc2c1)N1CCOCC1` [Compound 113, Morpholine-4-carboxylic acid (3-{4-[1-(6-morpholin-4-yl-pyridin-3-ylcarbamoyl)-piperidin-4-yl]-quinazolin-7-yloxy}-propyl)-amide], it took 11.5 µM to reach half-maximal inhibition (IC50). That is a double-digit micromolar value.

Compound `CCN1CCN(CCCOc2ccc3c(C4CCN(C(=O)Nc5ccc(N6CCOCC6)cc5)CC4)ncnc3c2)CC1` [Compound 115, 4-{7-[3-(4-Ethyl-piperazin-1-yl)-propoxy]-quinazolin-4-yl}-piperidine-1-carboxylic acid (4-morpholin-4-yl-phenyl)-amide] yielded a 50% inhibitory concentration (IC50) of over 20 µM.

`CC(=O)N1CCN(CCCOc2ccc3c(C4CCN(C(=O)Nc5ccc(N6CCOCC6)cc5)CC4)ncnc3c2)CC1` [Compound 117, 4-{7-[3-(4-Acetyl-piperazin-1-yl)-propoxy]-quinazolin-4-yl}-piperidine-1-carboxylic acid (4-morpholin-4-yl-phenyl)-amide]: the half-maximal inhibitory concentration (IC50) is over 20 µM.

For `CS(=O)(=O)N1CCN(CCCOc2ccc3c(C4CCN(C(=O)Nc5ccc(N6CCOCC6)cc5)CC4)ncnc3c2)CC1` [Compound 118, 4-{7-[3-(4-Methanesulfonyl-piperazin-1-yl)-propoxy]-quinazolin-4-yl}-piperidine-1-carboxylic acid (4-morpholin-4-yl-phenyl)-amide], half-maximal inhibition (IC50) was put at 14.6 µM.
